Assay results from patent US20250195530A1, “POLQ INHIBITORS” (ASTRAZENECA AB, priority 2022, published 2025).
Where two headings read alike, the source gives them in different places.

System: DLD-1 BRCA2−/− cells
Assay: Homologous recombination synthetic lethal inhibition of proliferation, DLD-1 BRCA2-/- (Cell Titre Glo 3D)
Type: cell-based
Conditions: Homo sapiens, read-out: POLQ PD Prolif Lumin (converted)
Text: This assay identifies anti-proliferative effects of POLQ compounds in the homologous recombination deficient colorectal cell line DLD-1 BRCA2−/− over 8-9 population doublings (7 days for DLD-1 and 12 days for DLD-1 BRCA2−/−). DLD1 BRCA2 wt are used as a control to detect cell toxic effects not specific to homologous recombination deficiency.
DLD-1 BRCA2−/− and DLD-1 cells were kept in continuous culture in Assay Medium (RPMI 1640 phenol red free (Sigma R7509) containing 1% GlutaMAX (Gibco 35050) and 10% Foetal Bovine Serum (Gibco 10270-106)). On the day of the assay cells in culture of ˜80-90% confluent were used. Cell monolayers were washed with 10 mL PBS, then removed and added 2 mL TrypLE Express (Gibco 12604). The cells with TrypLE Express were incubated for 5 minutes in cell culture incubator and then the detached cells resuspend in 15 mL Assay Medium. Cells were counted using a ViCell and the cell images were monitored for clumps of cells, ideally they should be single or <3 cell clusters. The cells were diluted to 3,000 cells/mL of DLD-1 BRCA2−/− and 1,500 cells/mL of DLD-1 in Assay Medium and 100 μL added per well of transparent bottomed, black, tissue culture-treated 96-well plates (CoStar, No. 3904) Assay Ready Plates. The Assay Ready Plates contain a 10 point 10 μM to 0.51 nM dose range with three-fold dilutions in DMSO with a final volume of 100 nL. The plates were incubated at 37° C. with 5% C02 for 6 days. On day 6, 100 μL/well of Assay Medium was added to duplicate Assay Ready Plates. 90 μL of culture medium was removed from the cell plates and replenished with the Assay Media and compounds from the duplicate Assay Ready Plates using the Bravo. The plates were further incubated at 37° C. with 5% CO2. On day 7 the plates containing DLD-1 and Cell Titre Glo 3D (Promega G9683) were equilibrated to room temperature, then 60 μL of Cell Titre Glo 3D was added per well and incubated on a shaking platform for 30 min. Plates were read on the Envision measuring luminescence for 1 second per well. On day 12 the plates containing DLD-1 BRCA2−/− cells and Cell Titre Glo 3D (Promega G9683) were equilibrated to room temperature, then 60 μL Cell Titre Glo 3D added per well and incubated on a shaking platform for 30 min. Plates were read on the Envision measuring luminescence for 1 second per well. The data was exported into a suitable software package (such as Genedata) to perform curve fitting analysis. Inhibition of cell proliferation was expressed as an IC5o value and was determined by calculation of the concentration of compound that was required to give a 50% reduction of the average maximum Total Intensity signal.

[1] = DLD-1, proliferation, luminescence, taken as DLD-1 BRCA2-/-
[2] = DLD-1, first proliferation column (c5), DLD-1 BRCA2-/-

SMILES	IC50 [1] [nM]	IC50 [2] [nM]
CC(CCOc1ccc(-c2nc3c(OC4(C)CC4)ncnc3n2Cc2cccc(C(F)(F)F)c2)c(Cl)c1)C(=O)O (single isomer, unassigned) [Example T396, 4-(3-chloro-4-(6-(1-methylcyclopropoxy)-9-(3-(trifluoromethyl)benzyl)-9H-purin-8-yl)phenoxy)-2-methylbutanoic acid]	251	
CC(CCOc1ccc(-c2nc3c(OC4(C)CC4)ncnc3n2Cc2cccc(C(F)F)c2)c(Cl)c1)C(=O)O (single isomer, unassigned) [Example T412, 4-(3-chloro-4-(9-(3-(difluoromethyl)benzyl)-6-(1-methylcyclopropoxy)-9H-purin-8-yl)phenoxy)-2-methylbutanoic acid]	251	
CC(CCOc1ccc(-c2nc3c(OC4(C)CC4)ncnc3n2Cc2ccccc2C(F)F)c(Cl)c1)C(=O)O (single isomer, unassigned) [Example T414, 4-(3-chloro-4-(9-(2-(difluoromethyl)benzyl)-6-(1-methylcyclopropoxy)-9H-purin-8-yl)phenoxy)-2-methylbutanoic acid]	1580	
CC(CCCOc1ccc(-c2nc3c(OC4(C)CC4)ncnc3n2Cc2cccc(Cl)c2)c(Cl)c1)C(=O)O (single isomer, unassigned) [Example T438, 5-(3-chloro-4-(9-(3-chlorobenzyl)-6-(1-methylcyclopropoxy)-9H-purin-8-yl)phenoxy)-2-methylpentanoic acid]	126	
CC(CCCOc1cccc(-c2nc3c(OC4(C)CC4)ncnc3n2Cc2cccc(Cl)c2)c1Cl)C(=O)O (single isomer, unassigned) [Example T443, 5-(2-chloro-3-(9-(3-chlorobenzyl)-6-(1-methylcyclopropoxy)-9H-purin-8-yl)phenoxy)-2-methylpentanoic acid]	79.4	
COc1cc(Cl)cc(Cn2c(-c3ccc(OCCC(C)C(=O)O)cc3Cl)nc3c(OC4(C)CC4)ncnc32)c1 (single isomer, unassigned) [Example T446, 4-(3-chloro-4-(9-(3-chloro-5-methoxybenzyl)-6-(1-methylcyclopropoxy)-9H-purin-8-yl)phenoxy)-2-methylbutanoic acid]	316	
COc1cccc(Cn2c(-c3ccc(OCCC(C)C(=O)O)cc3Cl)nc3c(OC4(C)CC4)ncnc32)c1 (single isomer, unassigned) [Example T455, 4-(3-chloro-4-(9-(3-methoxybenzyl)-6-(1-methylcyclopropoxy)-9H-purin-8-yl)phenoxy)-2-methylbutanoic acid]	1580	
Cc1c(Cn2c(-c3ccc(OCCC(C)C(=O)O)cc3Cl)nc3c(OC4(C)CC4)ncnc32)cccc1C(F)(F)F (single isomer, unassigned) [Example T534, 4-(3-chloro-4-(9-(2-methyl-3-(trifluoromethyl)benzyl)-6-(1-methylcyclopropoxy)-9H-purin-8-yl)phenoxy)-2-methylbutanoic acid]		3160
Cc1ccnc(Cn2c(-c3ccc(OC4CCc5nccn5C4)cc3Cl)nc3c(OC4(C)CC4)ncnc32)c1 (single isomer, unassigned) [Example T536, 8-(2-chloro-4-((5,6,7,8-tetrahydroimidazo[1,2-a]pyridin-6-yl)oxy)phenyl)-6-(1-methylcyclopropoxy)-9-((4-methylpyridin-2-yl)methyl)-9H-purine]		501
CC(CCOc1ccc(-c2nc3c(OC4(C)CC4)ncnc3n2Cc2cccc(C(C)(F)F)c2)c(Cl)c1)C(=O)O (single isomer, unassigned) [Example T545, 4-(3-chloro-4-(9-(3-(1,1-difluoroethyl)benzyl)-6-(1-methylcyclopropoxy)-9H-purin-8-yl)phenoxy)-2-methylbutanoic acid]		1000
Cc1ccc(C)c(Cn2c(-c3ccc(OCCC(C)C(=O)O)cc3Cl)nc3c(OC4(C)CC4)ncnc32)c1 (single isomer, unassigned) [Example T572, 4-(3-chloro-4-(9-(2,5-dimethylbenzyl)-6-(1-methylcyclopropoxy)-9H-purin-8-yl)phenoxy)-2-methylbutanoic acid]		631
